In ChEMBL document CHEMBL1201862, “PubChem BioAssay data set” (2004):
Each block holds one molecule with its values, some of them ahead of it. Active and inactive are the calls of the source. Unless noted, the calls are words filed in the database; no cut-off is given here.

Assays:
[1] = biological target: T1, E3 ubiquitin-protein ligase XIAP (Homo sapiens, UniProt P98170); assay: SAR analysis of Antagonists of IAP-family anti-apoptotic proteins. [Related pubchem assays (depositor defined):AID1018, AID1449, AID1513, AID1514, AID1638]
[2] = biological target: T1, E3 ubiquitin-protein ligase XIAP; assay: SAR analysis of Antagonists of XIAP-Bir3 domain of IAP-family anti-apoptotic proteins. [Related pubchem assays (depositor defined):AID1018, AID1449, AID1513, AID1514, AID1638]
Mu-type opioid receptor [3] = biological target: T2, Mu-type opioid receptor (Homo sapiens, UniProt P35372); assay: SAR Analysis of Antagonists of the MOR Receptor using an Image-Based Assay - Set 2. [Related pubchem assays (depositor defined):AID1777, AID1785, AID1786, AID1966, AID2133, AID2136, AID2284, AID2285, AID2420]; type: functional
[4] = biological target: T3, Kappa-type opioid receptor (Homo sapiens, UniProt P41145); assay: kappa opioid receptor blockade potency – cell-based, luminescence, set 2, SAR follow-up (AID 2495); type: functional
Mu-type opioid receptor [5] = biological target: T2, Mu-type opioid receptor; assay: SAR Analysis of Agonists of the MOR Receptor using an Image-Based Assay - Set 2. [Related pubchem assays (depositor defined):AID1777, AID1785, AID1786, AID1966, AID2133, AID2136, AID2284, AID2285, AID2352]; type: functional
[6] = biological target: T3, Kappa-type opioid receptor; assay: SAR analysis of Antagonists of the Kappa Opioid Receptor (KOR) using an Image-Based Assay - Set 2. [Related pubchem assays (depositor defined):AID1777, AID1785, AID1786, AID1966, AID2133, AID2136, AID2284, AID2285, AID2348]; type: functional
[7] = biological target: T4, Delta-type opioid receptor (Homo sapiens, UniProt P41143); assay: SAR Analysis of Antagonists of the DOR Receptor using an Image-Based Assay - Set 2. [Related pubchem assays (depositor defined):AID1777, AID1785, AID1786, AID1966, AID2133, AID2136, AID2284, AID2285, AID2357]; type: functional
[8] = biological target: T4, Delta-type opioid receptor; assay: SAR Analysis of Agonists of the DOR Receptor using an Image-Based Assay - Set 2. [Related pubchem assays (depositor defined):AID1777, AID1785, AID1786, AID1966, AID2133, AID2136, AID2284, AID2285, AID2370]; type: functional
[9] = biological target: T3, Kappa-type opioid receptor; assay: SAR analysis of small molecule agonists of the kappa opioid receptor via a luminescent beta-arrestin assay - Set 2. [Related pubchem assays (depositor defined):AID1777, AID1785, AID1786, AID1966, AID2133, AID2136, AID2284, AID449737]; type: functional
[10] = biological target: T3, Kappa-type opioid receptor; assay: SAR analysis of Agonists of the Kappa Opioid Receptor (KOR) using an Image-Based Assay - Set 2. [Related pubchem assays (depositor defined):AID1777, AID1786, AID1966, AID2133, AID2136, AID2284, AID2285, AID2359]; type: functional
Cannabinoid receptor 2 [11] = biological target: T5, Cannabinoid receptor 2 (Homo sapiens, UniProt P34972); assay: SAR analysis of antagonists of the Cannabinoid Receptor 2 using an Image-Based Assay - Set 3. [Related pubchem assays (depositor defined):AID2013, AID2026]; type: functional
Cannabinoid receptor 1 [12] = biological target: T6, Cannabinoid receptor 1 (Homo sapiens, UniProt P21554); assay: SAR analysis of agonists of the Cannabinoid Receptor 1 using an Image-Based Assay - Set 4. [Related pubchem assays (depositor defined):AID2013, AID2026]; type: functional
[13] = biological target: T7, G-protein coupled receptor 35 (Homo sapiens, UniProt Q9HC97); assay: SAR analysis of Antagonists of the GPR35 Receptor using an Image-Based Assay - Set 6. [Related pubchem assays (depositor defined):AID2013, AID2026]; type: functional
Cannabinoid receptor 2 [14] = biological target: T5, Cannabinoid receptor 2; assay: SAR analysis of agonists of the Cannabinoid Receptor 2 using an Image-Based Assay - Set 3. [Related pubchem assays (depositor defined):AID2013, AID2026]; type: functional
[15] = biological target: G-protein coupled receptor 55 (Homo sapiens, UniProt Q9Y2T6); assay: SAR Analysis of Selective Antagonists of GPR55 using an Image-Based Assay - Set 4. [Related pubchem assays (depositor defined):AID2013, AID2026]; type: functional;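 further: antagonism of response to 5 µM lysophosphatidylinositol agonist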
[16] = biological target: T7, G-protein coupled receptor 35; assay: SAR analysis of Agonists of the GPR35 Receptor using an Image-Based Assay - Set 4. [Related pubchem assays (depositor defined):AID2013, AID2026]; type: functional
Cannabinoid receptor 1 [17] = biological target: T6, Cannabinoid receptor 1; assay: SAR analysis of antagonists of the Cannabinoid Receptor 1 using an Image-Based Assay - Set 4. [Related pubchem assays (depositor defined):AID2013, AID2026]; type: functional
[18] = biological target: T8, Metabotropic glutamate receptor 4 (Rattus norvegicus, UniProt P31423); assay: Modulation of the Metabotropic Glutamate Receptor mGluR4: Rat PAM Potency. [Related pubchem assays (depositor defined):AID2437, AID2807]; type: functional
[19] = biological target: Metabotropic glutamate receptor 7 (Rattus norvegicus, UniProt P35400); assay: Modulation of the Metabotropic Glutamate Receptor mGluR4: Selectivity at mGluR7. [Related pubchem assays (depositor defined):AID2437, AID2807]; type: functional
[20] = biological target: Metabotropic glutamate receptor 5 (Rattus norvegicus, UniProt P31424); assay: Modulation of the Metabotropic Glutamate Receptor mGluR4: Selectivity at mGluR5. [Related pubchem assays (depositor defined):AID2437, AID2807]; type: functional
[21] = biological target: Metabotropic glutamate receptor 8 (Rattus norvegicus, UniProt P70579); assay: Modulation of the Metabotropic Glutamate Receptor mGluR4: Selectivity at mGluR8. [Related pubchem assays (depositor defined):AID2437, AID2807]; type: functional
[22] = biological target: Metabotropic glutamate receptor 2 (Rattus norvegicus, UniProt P31421); assay: mGluR2 modulation, off-target check – cell-based, rat, selectivity assay for mGluR4 modulator project (AID 2188); type: functional
[23] = biological target: Metabotropic glutamate receptor 6 (Homo sapiens, UniProt O15303); assay: Modulation of the Metabotropic Glutamate Receptor mGluR4: Selectivity at mGluR6. [Related pubchem assays (depositor defined):AID2437, AID2807]; type: functional
[24] = biological target: T8, Metabotropic glutamate receptor 4; assay: Modulation of the Metabotropic Glutamate Receptor mGluR4: Selectivity at mGluR4. [Related pubchem assays (depositor defined):AID2437, AID2807]; type: functional
[25] = biological target: Metabotropic glutamate receptor 3 (Rattus norvegicus, UniProt P31422); assay: Modulation of the Metabotropic Glutamate Receptor mGluR4: Selectivity at mGluR3. [Related pubchem assays (depositor defined):AID2437, AID2807]; type: functional
[26] = biological target: Metabotropic glutamate receptor 1 (Rattus norvegicus, UniProt P23385); assay: Modulation of the Metabotropic Glutamate Receptor mGluR4: Selectivity at mGluR1. [Related pubchem assays (depositor defined):AID2437, AID2807]; type: functional

T3 sequence (P41145 whole entry): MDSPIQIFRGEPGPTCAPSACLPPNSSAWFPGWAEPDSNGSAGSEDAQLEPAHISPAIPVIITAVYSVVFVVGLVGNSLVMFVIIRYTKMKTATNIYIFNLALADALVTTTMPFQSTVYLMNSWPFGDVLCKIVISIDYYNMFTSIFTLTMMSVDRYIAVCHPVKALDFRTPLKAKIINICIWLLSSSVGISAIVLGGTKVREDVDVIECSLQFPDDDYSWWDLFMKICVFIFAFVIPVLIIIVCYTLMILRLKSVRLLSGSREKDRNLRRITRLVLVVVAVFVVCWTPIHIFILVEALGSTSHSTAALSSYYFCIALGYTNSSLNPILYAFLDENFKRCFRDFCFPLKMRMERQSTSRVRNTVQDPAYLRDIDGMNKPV
T2 sequence (P35372 whole entry): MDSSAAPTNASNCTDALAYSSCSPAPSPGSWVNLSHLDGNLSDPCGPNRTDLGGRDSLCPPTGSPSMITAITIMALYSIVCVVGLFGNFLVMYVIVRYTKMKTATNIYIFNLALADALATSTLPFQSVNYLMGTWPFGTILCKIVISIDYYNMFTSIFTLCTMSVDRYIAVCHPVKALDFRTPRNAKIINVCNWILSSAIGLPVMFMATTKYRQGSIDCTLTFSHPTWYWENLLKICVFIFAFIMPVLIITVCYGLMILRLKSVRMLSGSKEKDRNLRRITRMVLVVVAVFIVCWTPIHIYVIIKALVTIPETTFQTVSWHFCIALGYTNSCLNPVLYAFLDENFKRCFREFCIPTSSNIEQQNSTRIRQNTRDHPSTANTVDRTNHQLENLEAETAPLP
T5 sequence (P34972 whole entry): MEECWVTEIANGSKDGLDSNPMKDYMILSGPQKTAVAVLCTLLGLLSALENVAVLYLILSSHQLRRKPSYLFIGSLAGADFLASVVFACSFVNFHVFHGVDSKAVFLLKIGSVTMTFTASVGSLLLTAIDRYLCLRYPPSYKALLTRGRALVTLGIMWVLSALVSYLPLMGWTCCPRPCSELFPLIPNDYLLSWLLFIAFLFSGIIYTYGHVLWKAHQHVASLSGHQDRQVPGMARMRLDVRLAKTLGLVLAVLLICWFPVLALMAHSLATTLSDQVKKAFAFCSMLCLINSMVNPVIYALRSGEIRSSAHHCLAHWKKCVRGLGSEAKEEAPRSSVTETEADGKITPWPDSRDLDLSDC
T8 sequence (P31423 whole entry): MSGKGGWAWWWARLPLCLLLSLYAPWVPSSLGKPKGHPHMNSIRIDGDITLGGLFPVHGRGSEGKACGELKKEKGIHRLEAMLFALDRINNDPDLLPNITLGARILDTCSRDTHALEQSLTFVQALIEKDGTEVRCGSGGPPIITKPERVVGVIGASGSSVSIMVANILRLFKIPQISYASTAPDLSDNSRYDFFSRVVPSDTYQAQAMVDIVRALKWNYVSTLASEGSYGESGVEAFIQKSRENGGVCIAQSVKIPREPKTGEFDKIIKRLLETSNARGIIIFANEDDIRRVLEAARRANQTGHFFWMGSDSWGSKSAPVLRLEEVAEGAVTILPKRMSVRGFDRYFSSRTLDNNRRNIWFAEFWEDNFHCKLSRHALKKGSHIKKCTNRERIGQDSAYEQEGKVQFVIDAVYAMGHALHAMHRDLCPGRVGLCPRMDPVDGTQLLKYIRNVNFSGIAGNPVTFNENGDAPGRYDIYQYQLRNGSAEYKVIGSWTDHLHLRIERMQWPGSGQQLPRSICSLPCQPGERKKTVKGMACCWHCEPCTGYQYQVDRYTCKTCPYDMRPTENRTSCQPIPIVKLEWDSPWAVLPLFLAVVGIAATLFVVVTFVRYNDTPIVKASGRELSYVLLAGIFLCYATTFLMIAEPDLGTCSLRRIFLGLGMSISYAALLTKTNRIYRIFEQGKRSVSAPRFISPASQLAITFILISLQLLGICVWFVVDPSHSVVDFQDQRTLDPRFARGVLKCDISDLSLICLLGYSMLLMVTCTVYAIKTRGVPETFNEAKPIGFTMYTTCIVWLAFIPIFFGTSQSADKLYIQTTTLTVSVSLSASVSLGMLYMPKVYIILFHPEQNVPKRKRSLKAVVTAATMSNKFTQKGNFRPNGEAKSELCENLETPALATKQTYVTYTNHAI
T4 sequence (P41143 whole entry): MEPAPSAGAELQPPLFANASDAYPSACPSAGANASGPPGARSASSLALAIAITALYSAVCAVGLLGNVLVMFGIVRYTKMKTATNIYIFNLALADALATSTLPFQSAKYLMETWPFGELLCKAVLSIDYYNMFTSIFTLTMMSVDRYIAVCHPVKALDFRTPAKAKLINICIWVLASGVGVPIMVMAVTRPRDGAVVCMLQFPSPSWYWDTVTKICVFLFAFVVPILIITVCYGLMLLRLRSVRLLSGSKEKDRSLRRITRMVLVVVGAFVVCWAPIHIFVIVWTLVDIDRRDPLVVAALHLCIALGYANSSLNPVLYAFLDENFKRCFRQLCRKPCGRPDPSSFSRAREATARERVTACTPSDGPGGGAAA
T1 sequence (P98170 whole entry, the tested form may be a part): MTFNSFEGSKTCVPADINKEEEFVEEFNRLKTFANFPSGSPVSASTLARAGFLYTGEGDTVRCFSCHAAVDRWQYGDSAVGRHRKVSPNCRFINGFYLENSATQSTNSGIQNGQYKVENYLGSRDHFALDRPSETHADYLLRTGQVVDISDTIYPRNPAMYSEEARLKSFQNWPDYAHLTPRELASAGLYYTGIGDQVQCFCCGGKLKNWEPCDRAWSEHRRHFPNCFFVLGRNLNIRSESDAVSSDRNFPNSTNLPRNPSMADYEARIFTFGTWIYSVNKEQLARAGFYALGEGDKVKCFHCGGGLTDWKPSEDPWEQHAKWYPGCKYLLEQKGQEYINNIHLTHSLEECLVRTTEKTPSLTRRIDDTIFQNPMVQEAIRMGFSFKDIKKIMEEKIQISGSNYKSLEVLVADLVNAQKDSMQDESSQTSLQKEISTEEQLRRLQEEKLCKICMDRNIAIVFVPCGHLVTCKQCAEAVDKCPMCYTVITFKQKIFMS
T7 sequence (Q9HC97 whole entry): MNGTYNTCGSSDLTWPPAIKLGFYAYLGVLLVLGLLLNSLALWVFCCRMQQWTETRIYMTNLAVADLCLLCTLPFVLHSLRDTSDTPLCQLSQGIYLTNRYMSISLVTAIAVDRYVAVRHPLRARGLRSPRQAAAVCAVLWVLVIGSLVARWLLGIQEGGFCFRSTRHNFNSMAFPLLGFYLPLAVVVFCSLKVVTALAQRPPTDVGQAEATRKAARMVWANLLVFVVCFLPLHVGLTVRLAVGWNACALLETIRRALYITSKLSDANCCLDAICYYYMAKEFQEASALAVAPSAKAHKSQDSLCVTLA
T6 sequence (P21554 whole entry): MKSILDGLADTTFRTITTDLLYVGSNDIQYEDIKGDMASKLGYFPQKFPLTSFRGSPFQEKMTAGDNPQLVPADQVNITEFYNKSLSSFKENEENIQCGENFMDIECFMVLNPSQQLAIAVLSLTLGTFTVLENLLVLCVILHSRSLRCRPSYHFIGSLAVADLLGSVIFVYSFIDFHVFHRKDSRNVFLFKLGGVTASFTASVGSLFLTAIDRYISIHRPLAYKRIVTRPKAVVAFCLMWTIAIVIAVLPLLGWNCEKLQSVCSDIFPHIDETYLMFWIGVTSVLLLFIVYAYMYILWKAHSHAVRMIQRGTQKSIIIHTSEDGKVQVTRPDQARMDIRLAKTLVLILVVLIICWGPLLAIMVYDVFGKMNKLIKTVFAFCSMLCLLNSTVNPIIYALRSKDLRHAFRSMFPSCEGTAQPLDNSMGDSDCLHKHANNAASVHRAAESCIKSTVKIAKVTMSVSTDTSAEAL
Chain of Metabotropic glutamate receptor 8 (P70579 whole entry): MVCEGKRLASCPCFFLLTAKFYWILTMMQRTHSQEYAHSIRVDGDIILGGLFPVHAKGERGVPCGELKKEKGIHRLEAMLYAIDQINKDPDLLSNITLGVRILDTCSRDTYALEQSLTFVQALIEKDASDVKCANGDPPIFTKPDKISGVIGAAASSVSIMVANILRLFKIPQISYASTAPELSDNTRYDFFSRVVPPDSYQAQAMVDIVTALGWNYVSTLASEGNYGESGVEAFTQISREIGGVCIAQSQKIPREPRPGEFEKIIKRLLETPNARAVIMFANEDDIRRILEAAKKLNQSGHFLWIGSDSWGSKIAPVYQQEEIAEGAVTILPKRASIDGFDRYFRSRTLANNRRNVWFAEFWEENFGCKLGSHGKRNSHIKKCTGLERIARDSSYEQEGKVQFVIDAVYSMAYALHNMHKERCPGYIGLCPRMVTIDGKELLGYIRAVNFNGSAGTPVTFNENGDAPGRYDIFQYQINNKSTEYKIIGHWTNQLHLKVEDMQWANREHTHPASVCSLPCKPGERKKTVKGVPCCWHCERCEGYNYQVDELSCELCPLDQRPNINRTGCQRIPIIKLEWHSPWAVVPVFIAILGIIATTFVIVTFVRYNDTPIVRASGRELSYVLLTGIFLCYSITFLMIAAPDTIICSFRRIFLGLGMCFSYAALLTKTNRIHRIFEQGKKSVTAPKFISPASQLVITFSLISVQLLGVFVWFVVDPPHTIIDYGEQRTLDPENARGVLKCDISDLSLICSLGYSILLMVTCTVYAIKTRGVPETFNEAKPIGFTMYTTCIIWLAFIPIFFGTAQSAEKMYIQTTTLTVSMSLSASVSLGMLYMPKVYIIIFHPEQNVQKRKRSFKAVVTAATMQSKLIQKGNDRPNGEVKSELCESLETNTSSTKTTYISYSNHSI
Chain of G-protein coupled receptor 55 (Q9Y2T6 whole entry): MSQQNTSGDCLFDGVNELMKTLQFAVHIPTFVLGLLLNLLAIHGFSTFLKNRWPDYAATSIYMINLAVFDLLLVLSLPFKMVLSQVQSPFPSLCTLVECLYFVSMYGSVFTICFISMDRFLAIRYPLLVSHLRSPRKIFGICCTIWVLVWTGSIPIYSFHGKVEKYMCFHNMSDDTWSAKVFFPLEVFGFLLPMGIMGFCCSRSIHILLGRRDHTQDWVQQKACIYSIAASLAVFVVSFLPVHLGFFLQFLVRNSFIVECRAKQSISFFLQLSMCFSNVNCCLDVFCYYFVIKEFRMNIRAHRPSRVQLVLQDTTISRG

IC50 [1]: 3.9 µM (active)
IC50 [2]: > 100 µM (inactive)
SMILES: CN[C@@H](C)C(=O)N[C@H](C(=O)N[C@H](C(=O)Nc1cccc2ccccc12)C(C)C)C(C)C

IC50 (Mu-type opioid receptor [3]): > 32 µM (inactive)
IC50 [4]: > 20 µM (inactive)
EC50 (Mu-type opioid receptor [5]): > 32 µM (inactive)
IC50 [6]: > 32 µM (inactive)
IC50 [7]: 13.9 µM (inactive)
EC50 [8]: > 32 µM (inactive)
EC50 [9]: 4.97 µM (active)
EC50 [10]: > 32 µM (inactive)
SMILES: Cc1cc(C)c(S(=O)(=O)NCc2ccc(C(=O)NCCN3Cc4ccccc4C3)cc2)c(C)c1

IC50 (Cannabinoid receptor 2 [11]): > 32 µM (inactive)
EC50 (Cannabinoid receptor 1 [12]): > 32 µM (inactive)
IC50 [13]: > 32 µM (inactive)
EC50 (Cannabinoid receptor 2 [14]): 2.33 µM (active)
IC50 [15]: > 32 µM (inactive)
EC50 [16]: > 32 µM (inactive)
IC50 (Cannabinoid receptor 1 [17]): > 32 µM (inactive)
SMILES: COCCCNC(=O)c1cc2c(=O)n3ccccc3nc2n(C2CCCC2)c1=N

EC50 [18]: 0.295 µM (active)
Activity EC50 [19]: 163 µM
EC50 [20]: 1.24 µM (inactive)
EC50 [21]: 9.14 µM (inactive)
EC50 [22]: 1.47 µM (inactive)
EC50 [23]: 1.25 µM (active)
EC50 [24]: 0.597 µM (active)
EC50 [25]: 0.811 µM (inactive)
EC50 [26]: 1.17 µM (inactive)
SMILES: O=C(Nc1cccc(Cl)c1)c1ccccn1
